Measured values taken from patent publication US12398154B2, “Azaquinazoline pan-KRas inhibitors” (Mirati Therapeutics, Inc., priority 2020, dated 2025).

Key:
[1] = system: pERK in MKN1 cells; experiment: Inhibition of KRas phosphorylation of ERK (Cisbio HTRF pERK assay); conditions: Homo sapiens, MKN-1, 3 h, read-out: Inhibition (HTRF IC50) of KRas-mediated Phosphorylation of ERK, MKN1
[2] = system: pERK in HCT116 cells; experiment: as above; conditions: Homo sapiens, HCT-116, read-out: Inhibition (HTRF IC50) of KRas-mediated Phosphorylation of ERK, HCT116
[3] = biological target: KRas G12D (Homo sapiens, UniProt P01116, G12D); experiment: biochemical;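 further: TR-FRET displacement binding assay on KRas, read after a one-hour incubation at room temperature, IC50 fitted from percent-of-control values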
KRas G12D, sequence (P01116 1-169 isoform P01116-2 G12D): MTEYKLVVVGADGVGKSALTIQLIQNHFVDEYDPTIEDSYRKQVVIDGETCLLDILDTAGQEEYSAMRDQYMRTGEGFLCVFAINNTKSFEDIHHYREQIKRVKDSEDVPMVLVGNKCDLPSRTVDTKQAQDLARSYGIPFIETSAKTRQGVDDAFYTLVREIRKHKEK
Procedure: (§1) The ability of a compound to bind to KRas was measured using a TR-FRET displacement assay. […] After a 60-minute incubation at room temperature, the reaction was measured using a BMG LABTECH CLARIO star Plus via TR-FRET. […] The POC values were fit to a 4-parameter IC50 equation and the IC50 value reported.

[4] = biological target: KRas G12V (Homo sapiens, UniProt P01116, G12V); experiment: biochemical;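 further: KRas binding measured by TR-FRET displacement at room temperature, IC50 fitted from percent of control values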
KRas G12V, sequence (P01116 1-169 isoform P01116-2 G12V): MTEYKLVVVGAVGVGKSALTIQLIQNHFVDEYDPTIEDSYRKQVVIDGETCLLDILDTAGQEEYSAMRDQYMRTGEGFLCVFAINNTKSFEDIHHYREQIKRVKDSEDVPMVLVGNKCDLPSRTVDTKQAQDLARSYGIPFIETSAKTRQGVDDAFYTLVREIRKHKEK
Procedure: as §1

[5] = biological target: KRas G12R (Homo sapiens, UniProt P01116, G12R); experiment: biochemical;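 further: TR-FRET displacement assay of compound binding to KRas, read after one hour at room temperature, potency from a four-parameter fit of percent-of-control values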
KRas G12R, sequence (P01116 1-169 isoform P01116-2 G12R): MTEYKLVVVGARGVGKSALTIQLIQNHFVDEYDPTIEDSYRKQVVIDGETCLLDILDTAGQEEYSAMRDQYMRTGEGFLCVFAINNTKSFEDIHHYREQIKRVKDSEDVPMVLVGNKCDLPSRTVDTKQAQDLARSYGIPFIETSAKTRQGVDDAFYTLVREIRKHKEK
Procedure: as §1

[6] = system: pERK in ASPC1 cells; experiment: Inhibition of KRas phosphorylation of ERK (Cisbio HTRF pERK assay); conditions: Homo sapiens, ASPC1, read-out: Inhibition (HTRF IC50) of KRas-mediated Phosphorylation of ERK, AsPC-1
[7] = system: pERK in PSN1 cells; experiment: as above; conditions: Homo sapiens, PSN1, 3 h, read-out: Inhibition (HTRF IC50) of KRas-mediated Phosphorylation of ERK, PSN1
[8] = biological target: KRas WT (Homo sapiens, UniProt P01116); experiment: biochemical;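 further: binding to KRas read as TR-FRET displacement after a one-hour room-temperature incubation, IC50 derived from percent-of-control values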
KRas WT, sequence (P01116 1-169 isoform P01116-2): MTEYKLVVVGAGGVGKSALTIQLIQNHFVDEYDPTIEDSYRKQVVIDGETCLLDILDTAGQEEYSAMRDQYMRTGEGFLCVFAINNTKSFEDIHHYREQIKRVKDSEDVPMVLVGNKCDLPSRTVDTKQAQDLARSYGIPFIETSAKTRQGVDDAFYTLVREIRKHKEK
Procedure: as §1

[9] = biological target: KRas G12C (Homo sapiens, UniProt P01116, G12C); experiment: biochemical;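 further: binding to KRas assessed by TR-FRET displacement after one hour incubation at room temperature, potency fitted from percent-of-control values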
KRas G12C, sequence (P01116 1-169 isoform P01116-2 G12C): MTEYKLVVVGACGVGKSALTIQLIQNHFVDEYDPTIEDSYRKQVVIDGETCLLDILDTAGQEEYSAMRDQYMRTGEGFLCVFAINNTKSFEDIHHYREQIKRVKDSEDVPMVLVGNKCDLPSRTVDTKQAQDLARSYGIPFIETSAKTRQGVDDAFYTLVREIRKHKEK
Procedure: as §1

[10] = system: pERK in H727 cells; experiment: Inhibition of KRas phosphorylation of ERK (Cisbio HTRF pERK assay); conditions: Homo sapiens, NCI-H727, read-out: Inhibition (HTRF IC50) of KRas-mediated Phosphorylation of ERK, H727

Compound | IC50 [1] [µM] | IC50 [2] [µM] | IC50 [3] [µM] | IC50 [4] [µM] | IC50 [5] [µM] | IC50 [6] [µM] | IC50 [7] [µM] | IC50 [8] [µM] | IC50 [9] [µM] | IC50 [10] [µM]
CCc1c(F)ccc2cc(O)cc(-c3ncc4c(NCCC5CNC(=O)C5)nc(OC[C@@]56CCCN5C[C@H](F)C6)nc4c3F)c12 (stereo partly drawn) [Example 376, 4-(2-((7-(8-ethyl-7-fluoro-3-hydroxynaphthalen-1-yl)-8-fluoro-2-(((2R,7aS)-2-fluorotetrahydro-1H-pyrrolizin-7a(5H)-yl)methoxy)pyrido[4,3-d]pyrimidin-4-yl)amino)ethyl)pyrrolidin-2-one] | – | 6.49 | 0.016 | 0.003 | 0.004 | ≥ 10 | – | – | – | –
CCc1c(F)ccc2cc(O)cc(-c3ncc4c(N5CCN6C(=O)NCC6C5)nc(OC[C@@]56CCCN5C[C@H](F)C6)nc4c3F)c12 (stereo partly drawn) [Example 380, 7-(7-(8-ethyl-7-fluoro-3-hydroxynaphthalen-1-yl)-8-fluoro-2-(((2R,7aS)-2-fluorohexahydro-1H-pyrrolizin-7a-yl)methoxy)pyrido[4,3-d]pyrimidin-4-yl)hexahydroimidazo[1,5-a]pyrazin-3(2H)-one] | 1.1 | 3.21 | 0.275 | 0.051 | 0.071 | ≥ 20 | ≥ 10 | 0.018 | 0.054 | –
CCc1c(F)ccc2cc(O)cc(-c3ncc4c(N5CCN6C(=O)NC(=O)C6C5)nc(OC[C@@]56CCCN5C[C@H](F)C6)nc4c3F)c12 (stereo partly drawn) [Example 381, 7-(7-(8-ethyl-7-fluoro-3-hydroxynaphthalen-1-yl)-8-fluoro-2-(((2R,7aS)-2-fluorohexahydro-1H-pyrrolizin-7a-yl)methoxy)pyrido[4,3-d]pyrimidin-4-yl) tetrahydroimidazo[1,5-a]pyrazine-1,3(2H,5H)-dione] | 0.282 | 0.741 | 0.023 | 0.011 | 0.021 | ≥ 20 | ≥ 10 | 0.005 | 0.016 | –
CCc1c(F)ccc2cc(O)cc(-c3ncc4c(NCCN5C(=O)CNC5=O)nc(OC[C@@]56CCCN5C[C@H](F)C6)nc4c3F)c12 [Example 379, 3-(2-((7-(8-ethyl-7-fluoro-3-hydroxynaphthalen-1-yl)-8-fluoro-2-(((2R,7aS)-2-fluorohexahydro-1H-pyrrolizin-7a-yl)methoxy)pyrido[4,3-d]pyrimidin-4-yl)amino)ethyl)imidazolidine-2,4-dione] | ≥ 10 | ≥ 20 | 0.111 | 0.014 | 0.034 | ≥ 20 | ≥ 10 | 0.026 | 0.021 | –
CCc1c(F)ccc2cc(O)cc(-c3ncc4c(N5CCC[C@]6(C5)C[C@@](C)(O)C6)nc(OCC56CCCN5CCC6)nc4c3F)c12 [Example 329, cis-6-(7-(8-ethyl-7-fluoro-3-hydroxynaphthalen-1-yl)-8-fluoro-2-((hexahydro-1H-pyrrolizin-7a-yl)methoxy)pyrido[4,3-d]pyrimidin-4-yl)-2-methyl-6-azaspiro[3.5]nonan-2-ol] | ≥ 10 | ≥ 20 | 6.6 | 1.78 | 3.38 | ≥ 20 | ≥ 10 | 1.03 | 2.62 | –
CCc1c(F)ccc2cc(O)cc(-c3ncc4c(N5CCCC6(C5)C[S+]([O-])C6)nc(OC[C@@]56CCCN5C[C@H](F)C6)nc4c3F)c12 (stereo partly drawn) [Example 484, 6-(7-(8-ethyl-7-fluoro-3-hydroxynaphthalen-1-yl)-8-fluoro-2-(((2R,7aS)-2-fluorohexahydro-1H-pyrrolizin-7a-yl)methoxy)pyrido[4,3-d]pyrimidin-4-yl)-2-thia-6-azaspiro[3.5]nonane 2-oxide] | 1.06 | – | 0.023 | 0.028 | 0.048 | 4.86 | ≥ 10 | – | – | 3.03
CCc1c(F)ccc2cc(O)cc(-c3ncc4c(N5CCOCC6(CCOCC6)C5)nc(OC[C@@]56CCCN5C[C@H](F)C6)nc4c3F)c12 [Example 500, 5-ethyl-6-fluoro-4-(8-fluoro-2-(((2R,7aS)-2-fluorohexahydro-1H-pyrrolizin-7a-yl)methoxy)-4-(3,8-dioxa-11-azaspiro[5.6]dodecan-11-yl)pyrido[4,3-d]pyrimidin-7-yl)naphthalen-2-ol] | 0.239 | – | 0.235 | 0.104 | 0.103 | 1.1 | ≥ 10 | – | – | 1.9
CCc1c(F)ccc2cc(O)cc(-c3ncc4c(NCCN5CC(=O)NC5=O)nc(OC[C@@]56CCCN5C[C@H](F)C6)nc4c3F)c12 [Example 378, 1-(2-((7-(8-ethyl-7-fluoro-3-hydroxynaphthalen-1-yl)-8-fluoro-2-(((2R,7aS)-2-fluorohexahydro-1H-pyrrolizin-7a-yl)methoxy)pyrido[4,3-d]pyrimidin-4-yl)amino)ethyl)imidazolidine-2,4-dione] | – | ≥ 10 | 0.104 | 0.014 | 0.025 | ≥ 10 | – | – | – | –

Now those with a lower IC50 [3], led by results:

IC50 [1] [µM] | IC50 [2] [µM] | IC50 [3] [µM] | IC50 [4] [µM] | IC50 [5] [µM] | IC50 [6] [µM] | IC50 [7] [µM] | IC50 [8] [µM] | IC50 [9] [µM] | IC50 [10] [µM] | Compound
0.103 | 3.84 | 0.005 | ≤ 0.002 | ≤ 0.002 | 4.07 | ≥ 10 | – | – | – | CCc1c(F)ccc2cc(O)cc(-c3ncc4c(NCC5CC(=O)N5)nc(OC[C@@]56CCCN5C[C@H](F)C6)nc4c3F)c12 (single isomer, unassigned) [Example 373]
– | ≥ 10 | 0.013 | 0.003 | 0.008 | ≥ 10 | – | – | – | – | CCc1c(F)ccc2cc(O)cc(-c3ncc4c(NCCC5NC(=O)NC5=O)nc(OC[C@@]56CCCN5C[C@H](F)C6)nc4c3F)c12 (stereo partly drawn) [Example 383, 5-(2-((7-(8-ethyl-7-fluoro-3-hydroxynaphthalen-1-yl)-8-fluoro-2-(((2R,7aS)-2-fluorohexahydro-1H-pyrrolizin-7a-yl)methoxy)pyrido[4,3-d]pyrimidin-4-yl)amino)ethyl) imidazolidine-2,4-dione]
0.387 | 9.34 | 0.007 | ≤ 0.002 | 0.005 | ≥ 20 | ≥ 10 | – | – | – | CCc1c(F)ccc2cc(O)cc(-c3ncc4c(NCC5CCC(=O)N5)nc(OC[C@@]56CCCN5C[C@H](F)C6)nc4c3F)c12 (stereo partly drawn) [Example 371, 5-(((7-(8-ethyl-7-fluoro-3-hydroxynaphthalen-1-yl)-8-fluoro-2-(((2R,7aS)-2-fluorohexahydro-1H-pyrrolizin-7a-yl)methoxy)pyrido[4,3-d]pyrimidin-4-yl)amino)methyl)pyrrolidin-2-one]
– | 1.46 | ≤ 0.002 | ≤ 0.002 | ≤ 0.002 | 0.903 | – | – | – | 1 | C#Cc1c(F)ccc2cc(O)cc(-c3ncc4c(N5CCCC6(C5)NC(=O)NC6=O)nc(OC[C@@]56CCCN5C[C@H](F)C6)nc4c3F)c12 (stereo partly drawn) [Example 397, 7-(7-(8-ethynyl-7-fluoro-3-hydroxynaphthalen-1-yl)-8-fluoro-2-(((2R,7aS)-2-fluorohexahydro-1H-pyrrolizin-7a-yl)methoxy)pyrido[4,3-d]pyrimidin-4-yl)-1,3,7-triazaspiro[4.5]decane-2,4-dione]
0.271 | 1.28 | 0.009 | 0.006 | 0.018 | 1.72 | ≥ 10 | 0.009 | 0.009 | – | CCc1c(F)ccc2cc(O)cc(-c3ncc4c(N5CCC[C@]6(C5)C[C@](C)(O)C6)nc(OCC56CCCN5CCC6)nc4c3F)c12 [Example 328, trans-6-(7-(8-ethyl-7-fluoro-3-hydroxynaphthalen-1-yl)-8-fluoro-2-((hexahydro-1H-pyrrolizin-7a-yl)methoxy)pyrido[4,3-d]pyrimidin-4-yl)-2-methyl-6-azaspiro[3.5]nonan-2-ol]
– | ≥ 10 | ≤ 0.002 | 0.009 | 0.015 | 9.38 | – | – | – | – | CCc1c(F)ccc2cc(O)cc(-c3ncc4c(NCC(N)CC(=O)O)nc(OC[C@@]56CCCN5C[C@H](F)C6)nc4c3F)c12 (single isomer, unassigned) [Example 374]
0.421 | – | ≤ 0.002 | ≤ 0.002 | ≤ 0.002 | ≥ 10 | ≥ 10 | – | – | 4.65 | CCc1c(F)ccc2cc(O)cc(-c3ncc4c(NCc5cc(C(N)=O)nn5C)nc(OC[C@@]56CCCN5C[C@H](F)C6)nc4c3F)c12 [Example 385, 5-(((7-(8-ethyl-7-fluoro-3-hydroxynaphthalen-1-yl)-8-fluoro-2-(((2R,7aS)-2-fluorohexahydro-1H-pyrrolizin-7a-yl)methoxy)pyrido[4,3-d]pyrimidin-4-yl)amino)methyl)-1-methyl-1H-pyrazole-3-carboxamide]
